{
  "source": "patent US6815546B2",
  "about": "“Analogues of camptothecin, their use as medicaments and the pharmaceutical compositions containing them” (Societe de Recherches et d'Applications Scientifiques …, priority 1995, dated 2004)",
  "type_in_all_cases": "cell-based",
  "key": {"[1]": {"test_system": "L1210 (mouse lymphocytic leukemia)", "test": "Test on cell proliferation (MTT test), L1210", "settings": "48 hours", "method": "(§1) a. Eight tumoral cell lines are used in this study: L1210 (mouse lymphocytic leukemia), HCT15 and LOVO (cell lines of human colon adenocarcinoma), A549 (human lung carcinoma), A172, U373 et U87 (human glioblastoma). All these lines are obtained from the American Type Culture Collection (ATCC), Rockville, Md. The L1210 cell cultures in suspension are cultured in Dulbecco's modified Eagle's medium (DMEM) (BioWhitaker, Verviers, Belgium) together with 10% of foetal calf serum inactivated by heating, 2 mM of glutamine, 50 μg/ml of penicillin and 50 μg/ml of streptomycin. The HT29 cells are cultured in mono-layer cultures in a McCoy 5a medium (Gibco, Paisley, United Kingdom) together with 10% of foetal calf serum inactivated by heat plus 2 mM of glutamine and 50 μg/ml of gentamycin. The other cells are cultured in an Earle's modified essential medium (EMEM; Gibco, Paisley, United Kingdom) together with 5% foetal calf serum inactivated by heat, 2 mM of glutamine, 50 U/ml of penicillin and 50 μg/ml of streptomycin. All the cell lines are cultured at 37° C. in a humidified atmosphere containing 95% air and 5% CO2.\n(§2) Inhibition of the tumor cell line proliferation is determined using an MTT test. 1500 L1210 cells in a culture medium (according to the needs of the cell medium) are seeded in a well of a micro-well plate (tissue culture level: 96 wells, flat bottom) 24 hours before treatment with the compounds to be tested. For these dose-response studies, the cells are incubated with each of the compounds to be tested or their corresponding solvent (controls) for 48 hours over a final concentration range of 1.10^−10 to 1.10^−4 M. All the compounds are dissolved just before use in dimethylsulphoxide (DMSO) at a concentration of 50 mM. Other dilutions of the medicaments are carried out in the culture medium. The final concentration of DMSO never exceeds 0.2% (v/v). As controls, the solutions of medicaments are replaced with the solvent which is diluted successively in the same way as the compounds to be tested.\n(§3) After the incubation period, the labeling reagent MTT (3-[4,5-dimethylthiazol-2-yl]-2,5-diphenyltetrazolium bromide; Thiazol blue, Sigma M 565, Sigma, St Louis, Mo.) is added at a final concentration of 0.3 mg/ml to each well. The cells are incubated for 4 hours at 37° C. in a humidified atmosphere. This stage allows the mitochondrial dehydrogenase of the living cells to convert the yellow tetrazolium salt MTT into crimson formazan crystals. The supernatant part is eliminated and the formazan crystals formed are solubilized with DMSO. The resultant coloured solution is quantified by absorbance at 570 nm by using a multi-cuvette scanning spectrophotometer. The data concerning the proliferation is expressed as a percentage of living cells in the treated wells, divided by the living cells in the controls. Each point represents the average of three independent experiments, each experiment represents six determinations.\n(§4) The results are expressed as percentages of the calculated proliferation by the optical density (OD) of the cells treated with a medicament divided by the OD of the control cells (cells treated with DMSO). As represented in Table II, the compounds to be tested have inhibited the proliferation of cells in a dose-dependent manner."}, "[2]": {"test_system": "HCT15 (cell lines of human colon adenocarcinoma)", "test": "Test on cell proliferation (MTT test), HCT15", "settings": "72 hours", "method": "as §1, §2, §3\n(§5) For the other cell lines (HCT15, LOVO, A549, A172, U373, U87), 1000 to 2000 cells are seeded in the well of a micro-well plate 24 hours before medicinal treatment. […]\nas §4"}, "[3]": {"test_system": "LOVO (cell lines of human colon adenocarcinoma)", "test": "Test on cell proliferation (MTT test), LOVO", "settings": "72 hours", "method": "as §1, §2, §3, §5, §4"}, "[4]": {"test_system": "A549 (human lung carcinoma)", "test": "Test on cell proliferation (MTT test), A549", "settings": "72 hours", "method": "as §1, §2, §3, §5, §4"}, "[5]": {"test_system": "A172 (human glioblastoma)", "test": "Test on cell proliferation (MTT test), A172", "settings": "72 hours", "method": "as §1, §2, §3, §5, §4"}, "[6]": {"test_system": "U373 (human glioblastoma)", "test": "Test on cell proliferation (MTT test), U373", "settings": "72 hours", "method": "as §1, §2, §3, §5, §4"}, "U87 (human glioblastoma)": {"test_system": "U87 (human glioblastoma)", "test": "Test on cell proliferation (MTT test), U87", "settings": "72 hours", "method": "as §1, §2, §3, §5, §4"}},
  "data": [
    {"smiles": "CCC(O)(CC(=O)O)c1cc2n(c(=O)c1CO)Cc1cc3ccccc3nc1-2", "note": "(stereo not shown) [Example 4, 3-hydroxy-3-[8-(hydroxymethyl)-9-oxo-9,11-dihydroindolizino [1,2-b]quinolin-7-yl]pentanoic acid]", "values": [
      {"measurement": "PERCENTAGE OF CELL PROLIFERATION", "setting": "[1]; 0.1 nM", "value": 92.14, "unit": "%"},
      {"measurement": "PERCENTAGE OF CELL PROLIFERATION", "setting": "[1]; 1 nM", "value": 97.14, "unit": "%"},
      {"measurement": "PERCENTAGE OF CELL PROLIFERATION", "setting": "[1]; 10 nM", "value": 91.08, "unit": "%"},
      {"measurement": "PERCENTAGE OF CELL PROLIFERATION", "setting": "[1]; 100 nM", "value": 86.28, "unit": "%"},
      {"measurement": "PERCENTAGE OF CELL PROLIFERATION", "setting": "[1]; 1 000 nM", "value": 46.79, "unit": "%"},
      {"measurement": "PERCENTAGE OF CELL PROLIFERATION", "setting": "[1]; 10 000 nM", "value": 27.80, "unit": "%"},
      {"measurement": "PERCENTAGE OF CELL PROLIFERATION", "setting": "[1]; 100 000 nM", "value": 8.09, "unit": "%"},
      {"measurement": "PERCENTAGE OF CELL PROLIFERATION", "setting": "[2]; 0.1 nM", "value": 91.00, "unit": "%"},
      {"measurement": "PERCENTAGE OF CELL PROLIFERATION", "setting": "[2]; 1 nM", "value": 92.00, "unit": "%"},
      {"measurement": "PERCENTAGE OF CELL PROLIFERATION", "setting": "[2]; 10 nM", "value": 86.00, "unit": "%"},
      {"measurement": "PERCENTAGE OF CELL PROLIFERATION", "setting": "[2]; 100 nM", "value": 78.00, "unit": "%"},
      {"measurement": "PERCENTAGE OF CELL PROLIFERATION", "setting": "[2]; 1 000 nM", "value": 54.00, "unit": "%"},
      {"measurement": "PERCENTAGE OF CELL PROLIFERATION", "setting": "[2]; 10 000 nM", "value": 20.00, "unit": "%"},
      {"measurement": "PERCENTAGE OF CELL PROLIFERATION", "setting": "[2]; 100 000 nM", "value": 7.00, "unit": "%"},
      {"measurement": "PERCENTAGE OF CELL PROLIFERATION", "setting": "[3]; 0.1 nM", "value": 80.00, "unit": "%"},
      {"measurement": "PERCENTAGE OF CELL PROLIFERATION", "setting": "[3]; 1 nM", "value": 75.00, "unit": "%"},
      {"measurement": "PERCENTAGE OF CELL PROLIFERATION", "setting": "[3]; 10 nM", "value": 79.00, "unit": "%"},
      {"measurement": "PERCENTAGE OF CELL PROLIFERATION", "setting": "[3]; 100 nM", "value": 69.00, "unit": "%"},
      {"measurement": "PERCENTAGE OF CELL PROLIFERATION", "setting": "[3]; 1 000 nM", "value": 38.00, "unit": "%"},
      {"measurement": "PERCENTAGE OF CELL PROLIFERATION", "setting": "[3]; 10 000 nM", "value": 21.00, "unit": "%"},
      {"measurement": "PERCENTAGE OF CELL PROLIFERATION", "setting": "[3]; 100 000 nM", "value": 5.00, "unit": "%"},
      {"measurement": "PERCENTAGE OF CELL PROLIFERATION", "setting": "[4]; 0.1 nM", "value": 71.00, "unit": "%"},
      {"measurement": "PERCENTAGE OF CELL PROLIFERATION", "setting": "[4]; 1 nM", "value": 76.00, "unit": "%"},
      {"measurement": "PERCENTAGE OF CELL PROLIFERATION", "setting": "[4]; 10 nM", "value": 71.00, "unit": "%"},
      {"measurement": "PERCENTAGE OF CELL PROLIFERATION", "setting": "[4]; 100 nM", "value": 56.00, "unit": "%"},
      {"measurement": "PERCENTAGE OF CELL PROLIFERATION", "setting": "[4]; 1 000 nM", "value": 36.00, "unit": "%"},
      {"measurement": "PERCENTAGE OF CELL PROLIFERATION", "setting": "[4]; 10 000 nM", "value": 22.00, "unit": "%"},
      {"measurement": "PERCENTAGE OF CELL PROLIFERATION", "setting": "[4]; 100 000 nM", "value": 12.00, "unit": "%"},
      {"measurement": "PERCENTAGE OF CELL PROLIFERATION", "setting": "[5]; 0.1 nM", "value": 93.00, "unit": "%"},
      {"measurement": "PERCENTAGE OF CELL PROLIFERATION", "setting": "[5]; 1 nM", "value": 92.00, "unit": "%"},
      {"measurement": "PERCENTAGE OF CELL PROLIFERATION", "setting": "[5]; 10 nM", "value": 98.00, "unit": "%"},
      {"measurement": "PERCENTAGE OF CELL PROLIFERATION", "setting": "[5]; 100 nM", "value": 97.00, "unit": "%"},
      {"measurement": "PERCENTAGE OF CELL PROLIFERATION", "setting": "[5]; 1 000 nM", "value": 44.00, "unit": "%"},
      {"measurement": "PERCENTAGE OF CELL PROLIFERATION", "setting": "[5]; 10 000 nM", "value": 31.00, "unit": "%"},
      {"measurement": "PERCENTAGE OF CELL PROLIFERATION", "setting": "[5]; 100 000 nM", "value": 10.00, "unit": "%"},
      {"measurement": "PERCENTAGE OF CELL PROLIFERATION", "setting": "[6]; 0.1 nM", "value": 86.00, "unit": "%"},
      {"measurement": "PERCENTAGE OF CELL PROLIFERATION", "setting": "[6]; 1 nM", "value": 85.00, "unit": "%"},
      {"measurement": "PERCENTAGE OF CELL PROLIFERATION", "setting": "[6]; 10 nM", "value": 89.00, "unit": "%"},
      {"measurement": "PERCENTAGE OF CELL PROLIFERATION", "setting": "[6]; 100 nM", "value": 63.00, "unit": "%"},
      {"measurement": "PERCENTAGE OF CELL PROLIFERATION", "setting": "[6]; 1 000 nM", "value": 30.00, "unit": "%"},
      {"measurement": "PERCENTAGE OF CELL PROLIFERATION", "setting": "[6]; 10 000 nM", "value": 16.00, "unit": "%"},
      {"measurement": "PERCENTAGE OF CELL PROLIFERATION", "setting": "[6]; 100 000 nM", "value": 2.00, "unit": "%"},
      {"measurement": "PERCENTAGE OF CELL PROLIFERATION", "setting": "U87 (human glioblastoma); 0.1 nM", "value": 98.00, "unit": "%"},
      {"measurement": "PERCENTAGE OF CELL PROLIFERATION", "setting": "U87 (human glioblastoma); 1 nM", "value": 101.00, "unit": "%"},
      {"measurement": "PERCENTAGE OF CELL PROLIFERATION", "setting": "U87 (human glioblastoma); 10 nM", "value": 98.00, "unit": "%"},
      {"measurement": "PERCENTAGE OF CELL PROLIFERATION", "setting": "U87 (human glioblastoma); 100 nM", "value": 74.00, "unit": "%"},
      {"measurement": "PERCENTAGE OF CELL PROLIFERATION", "setting": "U87 (human glioblastoma); 1 000 nM", "value": 11.00, "unit": "%"},
      {"measurement": "PERCENTAGE OF CELL PROLIFERATION", "setting": "U87 (human glioblastoma); 10 000 nM", "value": 6.00, "unit": "%"},
      {"measurement": "PERCENTAGE OF CELL PROLIFERATION", "setting": "U87 (human glioblastoma); 100 000 nM", "value": 2.00, "unit": "%"}
    ]}
  ]
}
